This is an account of results in patent US20100273757A1, “PYRAZINE DERIVATIVES USEFUL AS ADENOSINE RECEPTOR ANTAGONISTS” (Laboratorios Almirall, S.A., priority 2005, published 2010).

SMILES strings stand for the structures.

This assay has as its target T1, human A2B receptor (Homo sapiens, UniProt P29275).
T1 construct: host or cells: HEK293 cells stably expressing the receptor; membranes prepared from them
T1 sequence (P29275 1-332): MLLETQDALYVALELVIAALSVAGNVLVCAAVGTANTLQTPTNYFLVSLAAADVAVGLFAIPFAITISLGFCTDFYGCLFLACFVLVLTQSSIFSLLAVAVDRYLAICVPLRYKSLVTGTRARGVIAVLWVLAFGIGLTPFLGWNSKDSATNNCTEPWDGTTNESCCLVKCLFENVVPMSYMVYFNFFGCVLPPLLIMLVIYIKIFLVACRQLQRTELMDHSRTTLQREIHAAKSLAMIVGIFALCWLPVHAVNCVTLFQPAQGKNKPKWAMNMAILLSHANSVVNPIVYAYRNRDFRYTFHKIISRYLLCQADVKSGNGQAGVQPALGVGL
As to the kind of experiment: Adenosine 2B receptor subtype competition radioligand binding assay. The settings on record: [3H]-DPCPX competition, membranes from HEK293 cells expressing human A2B receptor. As to the method: A2B membranes were prepared from HEK293 cells stably expressing the human A2B receptor that were purchased from Euroscreen (ES-013-C). […] At the end of the incubation, samples were transferred to a GF/C filter plates (Milipore MAFCN0B50) pretreated for 15 min. with 250 μl of Tris-HCl 50 mM pH 6.5 (Buffer B). Samples were then filtered 4 times with 250 μl of buffer B. Samples were counted using 30 μl of Hisafe II (Perkin Elmer) in a Trilux counter.
In turn, `COc1ccc(-c2nc(NC(=O)C3CC3)cnc2-c2ccncc2F)cn1` [Example 119, N-[5-(3-Fluoropyridin-4-yl)-6-(6-methoxypyridin-3-yl)pyrazin-2-yl]cyclopropane carboxamide] showed a Ki of 3 nM. That is a single-digit nanomolar value.

Consider `Nc1cnc(-c2ccncc2F)c(-c2cccc(F)c2)n1` [Example 3, 6-(3-Fluorophenyl)-5-(3-fluoropyridin-4-yl)pyrazin-2-amine], for which the affinity corresponds to a Ki of 4 nM.

For the molecule `O=C(Nc1cnc(-c2ccncc2Cl)c(-c2ccccn2)n1)C1CC1` [Example 22, N-[5-(3-Chloropyridin-4-yl)-6-pyridin-2-ylpyrazin-2-yl]cyclopropanecarboxamide], the affinity corresponds to a Ki of 16 nM.

`COc1nc(-c2ccncc2)c(-c2ccco2)nc1N` [Example 67, 6-(2-Furyl)-3-methoxy-5-pyridin-4-ylpyrazin-2-amine] registered a Ki of 9 nM. Against the preceding molecule, the Ki is about 1.8-fold lower.

`Fc1cnccc1-c1nc2cc(-c3cccnc3)[nH]c2nc1-c1cccnc1` [Example 149, 2-(3-Fluoropyridin-4-yl)-3,6-dipyridin-3-yl-5H-pyrrolo[2,3-b]pyrazine] displayed a Ki of 0.9 nM. Compared with the last molecule, the Ki is about 10-fold lower.

On to `O=c1[nH]c2nc(-c3ccncc3)c(-c3cccc(F)c3)nc2[nH]1` [Example 76, 5-(3-Fluorophenyl)-6-pyridin-4-yl-1,3-dihydro-2H-imidazo[4,5-b]pyrazin-2-one], for which the affinity, expressed as Ki, was 4 nM.

Broadly, the Ki is the equilibrium dissociation constant of an inhibitor or competing ligand from its target.
